According to patent US20210379035A1, “Methods Of Treating Fabry Patients Having Renal Impairment” (Amicus Therapeutics, Inc., priority 2017, published 2021):

Test system: Fabry patients
Assay: Long-term analysis of 12 patients that completed multiple studies: eGFR
Assay type: in vivo, human
Settings: 11 patients who received migalastat HCl 150 mg QOD for ≥17 months (mean exposure, 4-5 years)
Text: In addition to the studies described above, other patients also received migalastat therapy in other studies such as dose-finding studies and/or long-term extension studies. […] 12 patients that completed multiple studies were further analyzed. Linear regression was used to calculate the annualized rate of change in […] from baseline.

## Cl.OC[C@H]1NC[C@H](O)[C@@H](O)[C@H]1O [migalastat HCl, migalastat hydrochloride]
  annualized mean change in eGFRCKD-EPI: 0.24 mL/min/1.72 m^2
